Results from patent publication US20230203081A1, “LINCOSAMIDE ANTIBIOTICS AND USES THEREOF” (President and Fellows of Harvard College, priority 2020, published 2023).

Tests used:
Type in all cases: cell-based
S. aureus ATCC 700699 = experiment: MIC (broth microdilution or agar dilution, CLSI); details: Staphylococcus aureus; S. aureus HAV#202, ATCC 700699 (VISA); read-out: MIC
Procedure, shortened: (§1)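 Isolates other than streptococci and anaerobes, which had their own procedures, were grown overnight at 35° C on tryptic soy agar with 5% sheep blood. Suspensions were then diluted to a final inoculum of 5×10^5 CFU/mL in broth microdilution wells.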

[1] = test system: S. pyogenes MMX 946; cErmB; experiment: MIC (broth microdilution or agar dilution, CLSI); details: Streptococcus pyogenes; S. pyogenes HAV#035, MMX 946; cErmB, mac-resistant; read-out: MIC
Procedure, shortened: as §1

E. coli LptD = experiment: MIC (broth microdilution or agar dilution, CLSI); details: Escherichia coli, E. coli HAV#040; LptD; read-out: MIC
Procedure, shortened: as §1

S. pyogenes ATCC 19615 = experiment: MIC (broth microdilution or agar dilution, CLSI); details: Streptococcus pyogenes, ATCC19615, S. pyogenes HAV#004, ATCC 19615; read-out: MIC
Procedure, shortened: as §1

[2] = test system: S. pneumoniae MMX 3028 cErmB; experiment: MIC (broth microdilution or agar dilution, CLSI); details: Streptococcus pneumoniae, MMX3028CERMB; S. pneumoniae HAV#033; MMX 3028, cErmB; read-out: MIC
Procedure, shortened: as §1

S. pneumoniae ATCC 6303 = experiment: MIC (broth microdilution or agar dilution, CLSI); details: Streptococcus pneumoniae, ATCC6303; S. pneumoniae HAV#351, ATCC 6303; read-out: MIC
Procedure, shortened: as §1

S. pneumoniae ATCC 49619 = experiment: MIC (broth microdilution or agar dilution, CLSI); details: Streptococcus pneumoniae, ATCC49619, S. pneumoniae HAV#003, ATCC 49619; read-out: MIC
Procedure, shortened: as §1

[3] = test system: S. pneumoniae MMX 3031 cMefA; experiment: MIC (broth microdilution or agar dilution, CLSI); details: Streptococcus pneumoniae, MMX3031CMEFA, S. pneumoniae HAV#034; MMX 3031, cMefA; read-out: MIC
Procedure, shortened: as §1

S. aureus ATCC 29213 = experiment: MIC (broth microdilution or agar dilution, CLSI); details: Staphylococcus aureus, ATCC29213, S. aureus HAV#001, ATCC 29213, MP-549; read-out: MIC
Procedure, shortened: as §1

[4] = test system: S. aureus ATCC BAA-1707 (MRSA); experiment: MIC (broth microdilution or agar dilution, CLSI); details: Staphylococcus aureus; S. aureus HAV#016, ATCC BAA-1707; MRSA; read-out: MIC
Procedure, shortened: as §1

[5] = test system: E. faecalis MMX 847; cErmB; experiment: MIC (broth microdilution or agar dilution, CLSI); details: Enterococcus faecalis; E. faecalis HAV#036, MMX 847; mac-resistant, cErmB; read-out: MIC
Procedure, shortened: as §1

E. coli ATCC 25922 = experiment: MIC (broth microdilution or agar dilution, CLSI); details: Escherichia coli, ATCC25922; E. coli HAV#006, ATCC 25922
Procedure, shortened: as §1

S. aureus MMX 3035 cErmA = experiment: MIC (broth microdilution or agar dilution, CLSI); details: Staphylococcus aureus, MMX3035CERMA; S. aureus HAV#031, MMX 3035; cErmA; read-out: MIC
Procedure, shortened: as §1

S. aureus MP-549 msrA = experiment: microbe, parasite or virus in culture; details: Staphylococcus aureus, MP549MSRA; S. aureus HAV#032, MP-549; MSR(A); read-out: MIC
Procedure, shortened: as §1

S. aureus BAA 977 iErmA = experiment: microbe, parasite or virus in culture; details: Staphylococcus aureus, BAA-977 / MRSA
Procedure, shortened: as §1

[6] = test system: broad panel of different clinical isolates; experiment: microbe, parasite or virus in culture
Procedure, shortened: as §1

E. coli ΔTolC = experiment: microbe, parasite or virus in culture; details: Escherichia coli, E. coli HAV#038; ΔTolC
Procedure, shortened: as §1

Measured: MIC

CC(=O)NC[C@H]1CN(c2ccc(N3CCOCC3)c(F)c2)C(=O)O1 [Linezolid]
4 µg/mL: S. aureus MP-549 msrA | S. aureus BAA 977 iErmA; 24 h | [6]; Enterococcus faecalis, E. faecalis HAV#602, Clincal | [6]; Enterococcus faecalis, E. faecalis HAV#609, Clinical | [6]; Enterococcus faecium, E. faecium HAV#324, Clinical | [6]; Enterococcus faecium, E. faecium HAV#327, Clinical | [6]; Enterococcus faecium, E. faecium HAV#329, Clinical | [6]; Enterococcus faecium, VRE, E. faecium HAV#318, VanA | [6]; Haemophilus influenzae, ATCC9007, H. influenzae HAV#376, ATCC-9007 | [6]; Staphylococcus aureus, S. aureus HAV#051, mecA, norA, spcl, ermA, aad1, aac6′-aph2″ | [6]; Staphylococcus aureus, S. aureus HAV#052, mecA, norA, fosB, blaZ | [6]; Staphylococcus aureus, S. aureus HAV#053 mecA, norA, fosB | [6]; Staphylococcus aureus, S. aureus HAV#211, Clinical | [6]; Staphylococcus aureus, S. aureus HAV#212, Clinical | [6]; Staphylococcus aureus, S. aureus HAV#214, Clinical | [6]; Staphylococcus epidermidis, S. epidermidis HAV#279, Line R | [6]; Streptococcus pneumoniae, ATCC700673, S. pneumoniae HAV#352, ATCC 700673, MDR | [6]; Streptococcus pneumoniae, ATCCBAA255, S. pneumoniae HAV#354, ATCC-BAA-255 | [6]; Streptococcus pneumoniae, ATCCBAA334, S. pneumoniae HAV#353, ATCC-BAA-334 | [6]; Streptococcus pneumoniae, S. pneumoniae HAV#356, Clinical | [6]; Streptococcus pneumoniae, S. pneumoniae HAV#358, Clinical
1 µg/mL: [1] | S. pneumoniae ATCC 6303 | S. pneumoniae ATCC 49619 | [3] | [6]; Staphylococcus aureus, S. aureus HAV#054, mecA, norA, spcl, aad1, fosB, ermA, aac6′-aph2″, blaZ
128 µg/mL: [6]; Acinetobacter baumannii, A. baumannii HAV#655, Clinical | [6]; Escherichia coli, E. coli HAV#503, Clinical
16 µg/mL: [6]; Acinetobacter baumannii, A. baumannii HAV#651, Clinical | [6]; Enterococcus faecalis, E. faecalis HAV#607, Clinical | [6]; Staphylococcus aureus, S. aureus HAV#216, Clinical, cfr
> 64 µg/mL: [6]; Staphylococcus epidermidis, S. epidermidis HAV# 275 Clinical, cfr | [6]; Staphylococcus epidermidis, S. epidermidis HAV# 276, cfr
0.5 µg/mL: [2]
32 µg/mL: E. coli LptD | [6]; Acinetobacter baumannii, A. baumannii HAV#652 Clinical | [6]; Acinetobacter baumannii, A. baumannii HAV#653, Clinical | [6]; Acinetobacter baumannii, A. baumannii HAV#654, Clinical | [6]; Acinetobacter baumannii, A. baumannii HAV#661, Clinical | [6]; Acinetobacter baumannii, A. baumannii HAV#663, Clinical | [6]; Escherichia coli, E. coli HAV#511, Clinical | [6]; Escherichia coli, E. coli HAV#512, Clinical | [6]; Escherichia coli, E. coli HAV#513, Clinical | [6]; Escherichia coli, E. coli HAV#514, Clinical | [6]; Klebsiella pneumoniae, K. pneumoniae HAV#404, Clinical | [6]; Klebsiella pneumoniae, K. pneumoniae HAV#405, Clinical | [6]; Klebsiella pneumoniae, K. pneumoniae HAV#406, Clinical | [6]; Klebsiella pneumoniae, K. pneumoniae HAV#407, Clinical | [6]; Klebsiella pneumoniae, K. pneumoniae HAV#408, Clinical | [6]; Staphylococcus aureus, MRSA, S. aureus HAV#220, Line R | [6]; Staphylococcus aureus, MSSA, S. aureus HAV#219, Line R
2 µg/mL: S. aureus ATCC 700699 | S. pyogenes ATCC 19615 | S. aureus ATCC 29213 | [4] | [5] | S. aureus MMX 3035 cErmA | S. aureus BAA 977 iErmA | [6]; Enterococcus faecalis, VRE, E. faecalis HAV#251, Clinical VRE | [6]; Enterococcus faecalis, VRE, E. faecalis HAV#606, Clinical | [6]; Enterococcus faecium, E. faecium HAV#317, Clinical | [6]; Enterococcus faecium, VRE, E. faecium HAV#320, Clinical | [6]; Staphylococcus aureus, MRSA, S. aureus HAV#0107, MRSA Col(Colindale, England) | [6]; Staphylococcus aureus, VISA, S. aureus HAV#203, Clinical (VISA)
64 µg/mL: [6]; Acinetobacter baumannii, A. baumannii HAV#656, Clinical | [6]; Acinetobacter baumannii, A. baumannii HAV#657, Clinical | [6]; Acinetobacter baumannii, A. baumannii HAV#658, Clinical | [6]; Acinetobacter baumannii, A. baumannii HAV#659, Clinical | [6]; Acinetobacter baumannii, A. baumannii HAV#660, Clinical | [6]; Acinetobacter baumannii, A. baumannii HAV#662, Clinical | [6]; Acinetobacter baumannii, A. baumannii HAV#664, Carbapenem R | [6]; Enterococcus faecium, VRE, E. faecium HAV#319, Line R & Vanco R | [6]; Escherichia coli, E. coli HAV#516, ESBL-producing | [6]; Klebsiella pneumoniae, K. pneumoniae HAV#409, ESBL-producing | [6]; Staphylococcus aureus, S. aureus HAV#217, cfr | [6]; Staphylococcus epidermidis, S. epidermidis HAV#278 Line R | [6]; Staphylococcus haemolyticus, S. haemolyticus 5052, Line R & Methicillin R
8 µg/mL: [6]; Enterococcus faecalis, S. faecalis 5060, Line R & Vanco R | [6]; Enterococcus faecalis, S. faecalis 5074, Line R | [6]; Staphylococcus aureus, MRSA, S. aureus HAV#218, Line R | E. coli ΔTolC
> 128 µg/mL: E. coli ATCC 25922 | [6]; Staphylococcus epidermidis, S. epidermidis HAV#277, Line R
